We go through 25 compounds from patent publication US8003658B2, “Quinazoline derivatives for inhibiting cancer cell growth and method for the preparation thereof” (Hanmi Holdings Co., Ltd., priority 2004, dated 2011).

Experiment [1] deals with A431 (ATCC: CRL-1555). Put plainly: Test of cancer cell growth inhibition (SRB), A431. The following applies: read-out: IC50 A431.
Experiment [2] deals with SK-Br3 (ATCC: HTB-30). In words: Test of cancer cell growth inhibition (SRB), SK-Br3. The following applies: read-out: IC50 SK-Br-3.
The mark [3] stands for this setting: EGFR overexpressed A431, 72 hours, SRB.
Setting [4] is: Erb-B2 overexpressed SK-Br3, 72 hours, SRB.

SMILES strings stand for the structures. Like-named read-outs stand apart in the source and are kept apart here.

Consider `C=CC(=O)N1CCC[C@H]1C(=O)Nc1cc2c(Nc3ccc(OCc4ccccn4)c(Cl)c3)ncnc2cc1N(C)C` [Example 184, (2S)-1-acryloyl-pyrrolidine-2-carboxylic acid {4-[3-chloro-4-(pyridin-2-ylmethoxy)-phenylamino]-7-dimethylamino-quinazolin-6-yl}-amide], for which the IC50 (usually the midpoint of a concentration-inhibition curve) in experiment [1] (Homo sapiens, A-431, 72 h) was found to be 1.43 µM; in experiment [2] (Homo sapiens, SK-BR-3, 72 h), 0.114 µM.
Consider `C=CC(=O)N[C@@H](C)CC(=O)Nc1cc2c(Nc3ccc(OCc4ccccn4)c(Cl)c3)ncnc2cc1OC` [Example 212, (3S)-3-acryloylamino-N-{4-[3-chloro-4-(pyridin-2-ylmethoxy)-phenylamino]-7-methoxy-quinazolin-6-yl}-butyramide], for which the IC50 in experiment [1] (Homo sapiens, A-431, 72 h) amounted to 0.098 µM; in experiment [2] (Homo sapiens, SK-BR-3, 72 h), 0.009 µM.
Regarding `C=CC(=O)N1C[C@H](OC(C)=O)C[C@H]1C(=O)Nc1ccc2ncnc(Nc3ccc(OCc4ccccn4)c(Cl)c3)c2c1` [Example 148, (3R,5S)-acetic acid 1-acryloyl-5-{4-[3-chloro-4-(pyridin-2-ylmethoxy)-phenylamino]-quinazolin-6-ylcarbamoyl}-pyrrolidin-3-ylester], the IC50 in experiment [1] (Homo sapiens, A-431, 72 h) is 0.034 µM; in experiment [2] (Homo sapiens, SK-BR-3, 72 h), 0.004 µM.
Turning to `CN1CCN(CC(=O)NCCC(=O)Nc2ccc3ncnc(Nc4ccc(OCc5cccc(F)c5)c(Cl)c4)c3c2)CC1` [Example 64, N-{4-[3-chloro-4-(3-fluoro-benzyloxy)-phenylamino]-quinazolin-6-yl}-3-[2-(4-methyl-piperazin-1-yl)-acetylamino]-propionamide], the IC50 in experiment [1] (Homo sapiens, A-431, 72 h) worked out at 0.698 µM; in experiment [2] (Homo sapiens, SK-BR-3, 72 h) it was 0.212 µM.
For the compound `CN(C)CCOCC(=O)NCCC(=O)Nc1ccc2ncnc(Nc3ccc(OCc4cccc(F)c4)c(Cl)c3)c2c1` [Example 122, N-{4-[3-chloro-4-(3-fluoro-benzyloxy)-phenylamino]-quinazolin-6-yl}-3-[2-(2-dimethylamino-ethoxy)-acetylamino]-propionamide], the IC50 in experiment [1] (Homo sapiens, A-431, 72 h) was found to be 0.617 µM; in experiment [2] (Homo sapiens, SK-BR-3, 72 h), 0.085 µM.
With `CS(=O)(=O)CCNCC(=O)NCCCC(=O)Nc1ccc2ncnc(Nc3ccc(OCc4cccc(F)c4)c(Cl)c3)c2c1` [Example 107, N-{4-[3-chloro-4-(3-fluoro-benzyloxy)-phenylamino]-quinazolin-6-yl}-4-[2-(2-methanesulfonyl-ethylamino)-acetylamino]-butyramide], the IC50 came out at 0.641 µM in experiment [1] (Homo sapiens, A-431, 72 h) and 0.051 µM in experiment [2] (Homo sapiens, SK-BR-3, 72 h).
In the case of `CC(CNC(=O)OC(C)(C)C)C(=O)Nc1ccc2ncnc(Nc3ccc(OCc4cccc(F)c4)c(Cl)c3)c2c1` (centres unmarked) [Example 41, (2-{4-[3-chloro-4-(3-fluoro-benzyloxy)-phenylamino]-quinazolin-6-ylcarbamoyl}-propyl)-carbamic acid t-butylester], the IC50 was found to be 0.936 µM in experiment [1] (Homo sapiens, A-431, 72 h) and 0.172 µM in experiment [2] (Homo sapiens, SK-BR-3, 72 h).
As to `O=C(CCc1ccccc1)NCCC(=O)Nc1ccc2ncnc(Nc3ccc(OCc4cccc(F)c4)c(Cl)c3)c2c1` [Example 23, 3-phenyl-propionylic acid (2-{4-[3-chloro-4-(3-fluoro-benzyloxy)-phenylamino]-quinazolin-6-ylcarbamoyl}-ethyl)-amide], the IC50 worked out at 0.316 µM in experiment [1] (setting [3]) and 0.359 µM in experiment [2] (setting [4]).
Take `CC(C)(C)OC(=O)NCCC(=O)Nc1ccc2ncnc(Nc3ccc(OCc4cccc(F)c4)c(Cl)c3)c2c1` [Example 19, (2-{4-[3-chloro-4-(3-fluoro-benzyloxy)-phenylamino]-quinazolin-6-ylcarbamoyl}-ethyl)-carbamic acid t-butylester]: the IC50 in experiment [1] (Homo sapiens, A-431, 72 h) came to 0.335 µM; in experiment [2] (Homo sapiens, SK-BR-3, 72 h) it was 0.427 µM.
`C=CC(=O)N1CCC[C@H]1C(=O)Nc1cc2c(Nc3ccc(OCc4cccc(C)n4)c(Cl)c3)ncnc2cc1OC` [Example 194, (2S)-1-acryloyl-pyrrolidine-2-carboxylic acid {4-[3-chloro-4-(6-methyl-pyridin-2-ylmethoxy)-phenylamino]-7-methoxy-quinazolin-6-yl}-amide]: the concentration for half-maximal inhibition (IC50) in experiment [1] (Homo sapiens, A-431, 72 h) was 0.093 µM; in experiment [2] (Homo sapiens, SK-BR-3, 72 h), 0.056 µM.
Take `COCC(=O)Nc1ccsc1C(=O)Nc1ccc2ncnc(Nc3ccc(OCc4cccc(F)c4)c(Cl)c3)c2c1` [Example 48, 3-(2-methoxy-acetylamino)-thiophene-2-carboxylic acid {4-[3-chloro-4-(3-fluoro-benzyloxy)-phenylamino]-quinazolin-6-yl}-amide]: the IC50 in experiment [1] (Homo sapiens, A-431, 72 h) came out at 0.828 µM; in experiment [2] (Homo sapiens, SK-BR-3, 72 h), 0.131 µM.
With `C=CC(=O)NCCC(=O)Nc1ccc2ncnc(Nc3ccc(OCc4ccncc4)c(Cl)c3)c2c1` [Example 174, N-(2-{4-[3-chloro-4-(pyridin-4-ylmethoxy)-phenylamino]-quinazolin-6-ylcarbamoyl}-ethyl)-acrylamide], the IC50 in experiment [1] (Homo sapiens, A-431, 72 h) worked out at 0.956 µM; in experiment [2] (Homo sapiens, SK-BR-3, 72 h), 0.035 µM.
For `COCC(=O)N[C@H](C(=O)Nc1ccc2ncnc(Nc3ccc(OCc4cccc(F)c4)c(Cl)c3)c2c1)c1ccccc1` [Example 11, (2S)—N-{4-[3-chloro-4-(3-fluoro-benzyloxy)-phenylamino]-quinazolin-6-yl}-2-(2-methoxy-acetylamino)-2-phenyl-acetamide], the IC50 in experiment [1] (Homo sapiens, A-431, 72 h) amounted to 0.252 µM; in experiment [2] (Homo sapiens, SK-BR-3, 72 h) it was 0.113 µM.
The corresponding values for `C=CC(=O)N(C)[C@@H](C)C(=O)Nc1cc2c(Nc3ccc(OCc4ccccn4)c(Cl)c3)ncnc2cc1OC` [Example 191, (1S)—N-(1-{4-[3-chloro-4-(pyridin-2-ylmethoxy)-phenylamino]-7-methoxy-quinazolin-6-ylcarbamoyl}ethyl)-N-methyl-acrylamide] are 0.056 µM and 0.003 µM.
Regarding `C=CC(=O)N1CCC[C@H]1C(=O)Nc1cc2c(Nc3ccc(OCc4ccccn4)c(Cl)c3)ncnc2cc1OCC` [Example 170, (2S)-1-acryloyl-pyrrolidine-2-carboxylic acid {4-[3-chloro-4-(pyridin-2-ylmethoxy)-phenylamino]-7-ethoxy-quinazolin-6-yl}-amide], the IC50 in experiment [1] (Homo sapiens, A-431, 72 h) was 0.199 µM; in experiment [2] (Homo sapiens, SK-BR-3, 72 h) it was 0.002 µM.
For the compound `C=CC(=O)N1CCC[C@H]1C(=O)Nc1cc2c(Nc3ccc(OCc4ccccn4)c(Cl)c3)ncnc2cc1SCC` [Example 171, (2S)-1-acryloyl-pyrrolidine-2-carboxylic acid {4-[3-chloro-4-(pyridin-2-ylmethoxy)-phenylamino]-7-ethylsulfanyl-quinazolin-6-yl}-amide], the IC50 in experiment [1] (Homo sapiens, A-431, 72 h) turned out to be 0.306 µM; in experiment [2] (Homo sapiens, SK-BR-3, 72 h), 0.031 µM.
For `C=CC(=O)N1CCCCC1C(=O)Nc1cc2c(Nc3ccc(OCc4ccccn4)c(Cl)c3)ncnc2cc1OC` (centres unmarked) [Example 196, 1-acryloyl-piperidine-2-carboxylic acid {4-[3-chloro-4-(pyridin-2-ylmethoxy)-phenylamino]-7-methoxy-quinazolin-6-yl}-amide], the IC50 came to 0.088 µM in experiment [1] (Homo sapiens, A-431, 72 h) and 0.025 µM in experiment [2] (Homo sapiens, SK-BR-3, 72 h).
As to `C=CC(=O)N1CC=C[C@H]1C(=O)Nc1cc2c(Nc3ccc(OCc4ccccn4)c(Cl)c3)ncnc2cc1OC` [Example 179, (2S)-1-acryloyl-2,5-dihydro-1H-pyrrol-2-carboxylic acid {4-[3-chloro-4-(pyridin-2-ylmethoxy)-phenylamino]-7-methoxy-quinazolin-6-yl}-amide], the IC50 in experiment [1] (Homo sapiens, A-431, 72 h) was 0.121 µM; in experiment [2] (Homo sapiens, SK-BR-3, 72 h) it was 0.017 µM.
For the compound `COCC(=O)N[C@@H](CCSC)C(=O)Nc1ccc2ncnc(Nc3ccc(OCc4cccc(F)c4)c(Cl)c3)c2c1` [Example 7-2, (2S)—N-{4-[3-chloro-4-(3-fluoro-benzyloxy)-phenylamino]-quinazolin-6-yl}-2-(2-methoxy-acetylamino)-4-methanesulfanyl-butyramide], the IC50 is 0.74 µM in experiment [1] (setting [3]) and 0.261 µM in experiment [2] (setting [4]).
As to `C=CC(=O)N1CCC(C(=O)Nc2cc3c(Nc4ccc(OCc5ccccn5)c(Cl)c4)ncnc3cc2OC)CC1` [Example 197, 1-acryloyl-piperidine-4-carboxylic acid {4-[3-chloro-4-(pyridin-2-ylmethoxy)-phenylamino]-7-methoxy-quinazolin-6-yl}-amide], the IC50 was determined as 0.259 µM in experiment [1] (Homo sapiens, A-431, 72 h) and 0.196 µM in experiment [2] (Homo sapiens, SK-BR-3, 72 h).
As for `C=CC(=O)NCCC(=O)Nc1ccc2ncnc(Nc3ccc(OCc4cccnc4)c(Cl)c3)c2c1` [Example 134, N-(2-{4-[3-chloro-4-(pyridin-3-ylmethoxy)-phenylamino]-quinazolin-6-ylcarbamoyl}-ethyl)-acrylamide], the IC50 in experiment [1] (Homo sapiens, A-431, 72 h) was determined as 0.193 µM; in experiment [2] (Homo sapiens, SK-BR-3, 72 h), 0.004 µM.
`O=C(CCNC(=O)c1ccoc1)Nc1ccc2ncnc(Nc3ccc(OCc4cccc(F)c4)c(Cl)c3)c2c1` [Example 33, furan-3-carboxylic acid (2-{4-[3-chloro-4-(3-fluoro-benzyloxy)-phenylamino]-quinazolin-6-ylcarbamoyl}-ethyl)-amide]: the IC50 in experiment [1] (Homo sapiens, A-431, 72 h) is 0.348 µM; in experiment [2] (Homo sapiens, SK-BR-3, 72 h), 0.131 µM.
With `C=CC(=O)NCCC(=O)N(CC)c1ccc2ncnc(Nc3ccc(OCc4cccc(F)c4)c(Cl)c3)c2c1` [Example 140, N-[2-({4-[3-chloro-4-(3-fluoro-benzyloxy)-phenylamino]-quinazolin-6-yl}-ethyl-carbamoyl)-ethyl]-acrylamide], the IC50 in experiment [1] (Homo sapiens, A-431, 72 h) worked out at 0.102 µM; in experiment [2] (Homo sapiens, SK-BR-3, 72 h), 0.102 µM.
Turning to `C=CC(=O)N1CCC[C@H]1C(=O)Nc1cc2c(Nc3ccc(OCc4cccc(F)c4)c(Cl)c3)ncnc2cc1OCCOC` [Example 215, (2S)-1-acryloyl-pyrrolidine-2-carboxylic acid {4-[3-chloro-4-(3-fluoro-benzyloxy)-phenylamino]-7-(2-methoxyethoxy)-quinazolin-6-yl}-amide], the IC50 stood at 0.059 µM in experiment [1] (Homo sapiens, A-431, 72 h) and 0.011 µM in experiment [2] (Homo sapiens, SK-BR-3, 72 h).
For `O=C(CCCNC(=O)c1cn[nH]c1)Nc1ccc2ncnc(Nc3ccc(OCc4cccc(F)c4)c(Cl)c3)c2c1` [Example 95, 1H-pyrazol-4-carboxylic acid (3-{4-[3-chloro-4-(3-fluoro-benzyloxy)-phenylamino]-quinazolin-6-ylcarbamoyl}-propyl)-amide], in that order: 0.994 µM and 0.331 µM.
